Laboratory results published in patent publication US9302999B2, “Substituted triazoles as herbicides” (E. I. DU PONT DE NEMOURS AND COMPANY, priority 2012, dated 2016).

Legend:
Type in all cases: in vivo
[1] = system: nutsedge, yellow (yellow nutsedge, Cyperus esculentus); experiment: Test C pre-/postemergence: nutsedge, yellow
Outline: (§1)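 Visual injury scored 0–100 (100 = complete control) against untreated controls after 13–15 greenhouse days. Surfactant-containing solvent formulations applied either to soil after sowing (loam/sand) or over 1- to 4-leaf plants, 2–18 cm tall.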

[2] = system: velvetleaf (Abutilon theophrasti); experiment: Test C pre-/postemergence: velvetleaf
Outline: as §1

[3] = system: large crabgrass (Digitaria sanguinalis); experiment: Test C pre-/postemergence: large crabgrass
Outline: as §1

corn (Zea mays) [4] = experiment: Test A pre-/postemergence: corn
Outline: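 Whole-plant greenhouse assay in loam/sand. Preemergence directed soil spray plus simultaneous postemergence spray (one- to two-leaf stage, 2–10 cm). Rated visually ~10 days later, 0 = no effect, 100 = complete control.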

[5] = system: chickweed (common chickweed, Stellaria media); experiment: Test C postemergence: chickweed
Outline: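 Seedlings are raised in pots of peat-based medium to 2–18 cm (1- to 4-leaf stage). The formulated compound is then applied postemergence. Plants stay in the greenhouse for 13 to 15 days and are rated visually against controls, where 0 means no effect and 100 complete control.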

[6] = system: ragweed (common ragweed, Ambrosia elation); experiment: Test C pre-/postemergence: ragweed
Outline: as §1

wild oat (Avena fatua) = experiment: Test C pre-/postemergence: wild oat; details: Postemergence
Outline: as §1

corn (Zea mays) [7] = experiment: Test C pre-/postemergence: corn
Outline: as §1

kochia (Kochia scoparia) = experiment: Test C pre-/postemergence: kochia; details: Postemergence
Outline: as §1

[8] = system: ducksalad (Heteranthera limosa); experiment: Test B flooded paddy: ducksalad; details: Flood; 250 g ai/ha; applied to paddy water at 2-leaf stage; visually evaluated after 13 to 15 days
Outline: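 At two leaves, seedlings received the test compound via the paddy water, pots having been flooded 3 cm over the soil surface and kept so. Greenhouse-held for 13 to 15 days, then judged by eye against controls on a scale running 0 (no effect) to 100 (complete control).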

[9] = system: foxtail, giant (giant foxtail, Setaria faberii); experiment: Test C pre-/postemergence: foxtail, giant
Outline: as §1

[10] = Postemergence, 31 g ai/ha, scale 0 to 100 (0 no effect, 100 complete control)
[11] = Postemergence, 62 g ai/ha, scale 0 to 100 (0 no effect, 100 complete control)
[12] = Postemergence, 125 g ai/ha, scale 0 to 100, 0 no effect, 100 complete control
[13] = Postemergence, 250 g ai/ha, scale 0 to 100
[14] = Preemergence, 31 g ai/ha, scale of 0 to 100, 0 is no effect, 100 is complete control
[15] = Preemergence, 62 g ai/ha, scale of 0 to 100, 0 is no effect, 100 is complete control
[16] = Preemergence, 125 g ai/ha, scale 0 to 100, 0 no effect, 100 complete control
[17] = Preemergence, 250 g ai/ha, scale 0 to 100, 0 no effect, 100 complete control
[18] = 31 g ai/ha, scale 0 to 100 (0 no effect, 100 complete control)
[19] = 62 g ai/ha, scale 0 to 100 (0 no effect, 100 complete control)
[20] = 125 g ai/ha, scale 0 to 100, 0 no effect, 100 complete control

CCc1nn(-c2ccc(C(F)(F)F)cc2)nc1Cc1ccnc(C(F)(F)F)c1 [Compound 155]
25: Plant response rating, Corn (corn (Zea mays) [7]; [10]) | Plant response rating, Corn (corn (Zea mays) [7]; [11])
5: Plant response rating, Nutsedge, Yellow [1, 10] | Plant response rating, Corn (corn (Zea mays) [7]; [14]) | Plant response rating, Corn (corn (Zea mays) [7]; [15])
100: Plant response rating, Velvetleaf [2, 17] | Plant response rating, Crabgrass, Large [3, 14] | Plant response rating, Crabgrass, Large [3, 15] | Plant response rating, Crabgrass, Large [3, 16] | Plant response rating, Crabgrass, Large [3, 17] | Plant response rating, Chickweed ([5]; 250 g ai/ha, scale 0 to 100) | Plant response rating, Foxtail, Giant [9, 13] | Plant response rating, Foxtail, Giant [9, 14] | Plant response rating, Foxtail, Giant [9, 15] | Plant response rating, Foxtail, Giant [9, 16] | Plant response rating, Foxtail, Giant [9, 17]
40: Plant response rating, Corn (corn (Zea mays) [4]; Postemergence, 125 g ai/ha, 0 to 100 scale, 0 is no effect, 100 is complete control) | Plant response rating, Ragweed [6, 15] | Plant response rating, Oat, Wild (wild oat (Avena fatua); [18])
70: Corn plant response rating (corn (Zea mays) [4]; Postemergence, 500 g ai/ha, visual rating on 0 to 100 scale (0 no effect, 100 complete control), approximately ten days) | Plant response rating, Chickweed [5, 19]
75: Plant response rating, Velvetleaf [2, 12] | Plant response rating, Crabgrass, Large [3, 12] | Plant response rating, Oat, Wild (wild oat (Avena fatua); [20]) | Plant response rating, Foxtail, Giant [9, 12]
60: Plant response rating, Velvetleaf [2, 11] | Plant response rating, Corn (corn (Zea mays) [4]; Preemergence, 125 g ai/ha, 0 to 100 scale where 0 is no effect and 100 is complete control)
90: Plant response rating, Oat, Wild (wild oat (Avena fatua); 250 g ai/ha, scale 0 to 100) | Plant response rating, Kochia (kochia (Kochia scoparia); [18]) | Plant response rating, Kochia (kochia (Kochia scoparia); [19])
15: Plant response rating, Foxtail, Giant [9, 10]
10: Plant response rating, Nutsedge, Yellow [1, 11] | Plant response rating, Nutsedge, Yellow [1, 12] | Plant response rating, Corn (corn (Zea mays) [7]; [16])
20: Plant response rating, Nutsedge, Yellow [1, 13] | Plant response rating, Crabgrass, Large [3, 10] | Plant response rating, Ragweed [6, 14]
85: Plant response rating, Velvetleaf [2, 16] | Plant response rating, Crabgrass, Large [3, 13] | Plant response rating, Ragweed [6, 12] | Plant response rating, Ragweed [6, 13] | Plant response rating, Ragweed [6, 16]
45: Plant response rating, Crabgrass, Large [3, 11] | Plant response rating, Oat, Wild (wild oat (Avena fatua); [19]) | Plant response rating, Corn (corn (Zea mays) [7]; [12]) | Plant response rating, Corn (corn (Zea mays) [7]; [13]) | Plant response rating, Corn (corn (Zea mays) [7]; [17]) | Plant response rating, Foxtail, Giant [9, 11]
0: Plant response rating, Nutsedge, Yellow [1, 14]
80: Plant response rating, Velvetleaf [2, 13] | Plant response rating, Velvetleaf [2, 15] | Plant response rating, Corn (corn (Zea mays) [4]; Preemergence, 500 g ai/ha, 0 to 100 scale (0 no effect, 100 complete control)) | Plant response rating, Ragweed [6, 10] | Plant response rating, Ducksalad (0 to 100 scale, 0 is no effect, 100 is complete control) [8]
30: Plant response rating, Velvetleaf [2, 14]
50: Plant response rating, Velvetleaf [2, 10] | Plant response rating, Chickweed [5, 18]
95: Plant response rating, Chickweed [5, 20] | Plant response rating, Ragweed [6, 17] | Plant response rating, Kochia (kochia (Kochia scoparia); [20]) | Plant response rating, Kochia (kochia (Kochia scoparia); 250 g ai/ha, scale 0 to 100)
